PubChem BioAssay (NCI)
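All cell lines were grown in 96-well plates and treated with compound for 48 hours. GI50: concentration for 50% inhibition of growth. TGI: concentration producing complete growth inhibition.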

Tests used:
Assay in all cases: inhibition of tumour cell growth, NCI panel, 48 h
[1] = tested on: HCC-2998 colon
[2] = tested on: UO-31 renal
[3] = tested on: HCT-116 colon
[4] = tested on: MDA-MB-435
[5] = tested on: HL-60(TB) leukemia
[6] = tested on: SF-268 CNS
[7] = tested on: NCI-H460 lung
[8] = tested on: OVCAR-3 ovarian
[9] = tested on: HT29 colon
[10] = tested on: A498 renal
[11] = tested on: NCI/ADR-RES ovarian
[12] = tested on: U251 CNS
[13] = tested on: SR leukemia
[14] = tested on: PC-3 prostate
[15] = tested on: MALME-3M melanoma
[16] = tested on: NCI-H226 lung
[17] = tested on: HOP-62 NSCLC
[18] = tested on: MCF7 breast
[19] = tested on: 786-0 renal
[20] = tested on: M14 melanoma
[21] = tested on: LOX IMVI melanoma
[22] = tested on: HOP-92 NSCLC
[23] = tested on: SK-MEL-5 melanoma
[24] = tested on: NCI-H522 lung
[25] = tested on: SN12C renal
[26] = tested on: SK-OV-3 ovarian
[27] = tested on: RPMI-8226 leukemia
[28] = tested on: ACHN renal
[29] = tested on: IGROV1 ovarian
[30] = tested on: DU-145 prostate
[31] = tested on: CCRF-CEM leukemia
[32] = tested on: UACC-62 melanoma
[33] = tested on: NCI-H23 lung
[34] = tested on: SF-539 CNS
[35] = tested on: OVCAR-5 ovarian
[36] = tested on: COLO 205 colon
[37] = tested on: UACC-257 melanoma
[38] = tested on: TK-10 renal
[39] = tested on: T-47D breast
[40] = tested on: MOLT-4 leukemia
[41] = tested on: OVCAR-4 ovarian
[42] = tested on: HS 578T breast
[43] = tested on: CAKI-1 renal
[44] = tested on: SW-620 colon
[45] = tested on: HCT-15 colon
[46] = tested on: SK-MEL-2 melanoma
[47] = tested on: K-562 leukemia
[48] = tested on: MDA-MB-231 breast
[49] = tested on: OVCAR-8 ovarian
[50] = tested on: SK-MEL-28 melanoma
[51] = tested on: RXF 393 renal
[52] = tested on: KM12 colon
[53] = tested on: SNB-75 CNS
[54] = tested on: A549 NSCLC
[55] = tested on: BT-549 breast
[56] = tested on: SF-295 CNS
[57] = tested on: SNB-19 CNS

Cn1cc(C2=C(c3ccccc3C(F)(F)F)C(=O)NC2=O)c2ccccc21
GI50 [1]: > 19.6 µM | TGI [1]: > 25 µM | GI50 [2]: 7.84 µM | TGI [2]: > 25 µM | GI50 [3]: 6.59 µM | TGI [3]: > 25 µM | GI50 [4]: 9.89 µM | TGI [4]: > 25 µM | GI50 [5]: 6.87 µM | TGI [5]: 17.5 µM | GI50 [6]: 11.4 µM | TGI [6]: > 25 µM | GI50 [7]: 9.18 µM | TGI [7]: > 25 µM | GI50 [8]: 7.8 µM | TGI [8]: 24.8 µM | GI50 [9]: 6.22 µM | TGI [9]: > 25 µM | GI50 [10]: 3.9 µM | TGI [10]: 17.5 µM | GI50 [11]: 9.53 µM | TGI [11]: > 25 µM | GI50 [12]: 7.06 µM | TGI [12]: > 25 µM | GI50 [13]: 6.36 µM | TGI [13]: > 22.2 µM | GI50 [14]: 6.13 µM | TGI [14]: > 25 µM | GI50 [15]: > 18.5 µM | TGI [15]: > 25 µM | GI50 [16]: 7.07 µM | TGI [16]: > 24.2 µM | GI50 [17]: 11.8 µM | TGI [17]: > 25 µM | GI50 [18]: 7.47 µM | TGI [18]: > 25 µM | GI50 [19]: 9.16 µM | TGI [19]: > 25 µM | GI50 [20]: 19.8 µM | TGI [20]: > 25 µM | GI50 [21]: 8.46 µM | TGI [21]: > 25 µM | GI50 [22]: 17.2 µM | TGI [22]: > 25 µM | GI50 [23]: 4.74 µM | TGI [23]: 13 µM | GI50 [24]: 11.6 µM | TGI [24]: > 25 µM | GI50 [25]: 9.73 µM | TGI [25]: > 25 µM | GI50 [26]: 10.2 µM | TGI [26]: > 25 µM | GI50 [27]: 10.7 µM | TGI [27]: > 25 µM | GI50 [28]: 8.06 µM | TGI [28]: > 25 µM | GI50 [29]: 13.2 µM | TGI [29]: > 25 µM | GI50 [30]: 12.5 µM | TGI [30]: > 25 µM | GI50 [31]: 4.86 µM | TGI [31]: > 25 µM | GI50 [32]: 9.97 µM | TGI [32]: > 25 µM | GI50 [33]: 11.9 µM | TGI [33]: > 25 µM | GI50 [34]: 11.1 µM | TGI [34]: > 25 µM | GI50 [35]: > 24.1 µM | TGI [35]: > 25 µM | GI50 [36]: 6.42 µM | TGI [36]: > 25 µM | GI50 [37]: 9.59 µM | TGI [37]: > 22.5 µM | GI50 [38]: 10.2 µM | TGI [38]: > 25 µM | GI50 [39]: 7.68 µM | TGI [39]: > 25 µM | GI50 [40]: 5.89 µM | TGI [40]: > 22.6 µM | GI50 [41]: 9.64 µM | TGI [41]: > 25 µM | GI50 [42]: 5.36 µM | TGI [42]: > 25 µM | GI50 [43]: 6.6 µM | TGI [43]: > 25 µM | GI50 [44]: 10.2 µM | TGI [44]: > 25 µM | GI50 [45]: 9.59 µM | TGI [45]: > 25 µM | GI50 [46]: 8.11 µM | TGI [46]: > 24 µM | GI50 [47]: 8.82 µM | TGI [47]: > 25 µM | GI50 [48]: 17.4 µM | TGI [48]: > 25 µM | GI50 [49]: 10.4 µM | TGI [49]: > 25 µM | GI50 [50]: 14.6 µM | TGI [50]: > 25 µM | GI50 [51]: 5.17 µM | TGI [51]: 16.7 µM | GI50 [52]: 6.97 µM | TGI [52]: > 25 µM | GI50 [53]: > 14 µM | TGI [53]: > 25 µM | GI50 [54]: 7.89 µM | TGI [54]: > 25 µM | GI50 [55]: 11 µM | TGI [55]: > 25 µM | GI50 [56]: 4.33 µM | TGI [56]: > 17.2 µM | GI50 [57]: 21 µM | TGI [57]: > 25 µM

Nc1ccc(-c2ccc3ncc4ccc(=O)n(-c5cccc(C(F)(F)F)c5)c4c3c2)cn1
GI50 [1]: < 0.0118 µM | TGI [1]: 1.6 µM | GI50 [2]: < 0.01 µM | TGI [2]: 2.39 µM | GI50 [3]: 0.0135 µM | TGI [3]: 1.41 µM | GI50 [4]: < 0.01 µM | TGI [4]: 3.26 µM | GI50 [5]: 0.0408 µM | TGI [5]: 8.66 µM | GI50 [6]: < 0.0104 µM | TGI [6]: 4.61 µM | GI50 [7]: < 0.01 µM | TGI [7]: 3.18 µM | GI50 [8]: < 0.01 µM | TGI [8]: 3.32 µM | GI50 [9]: 0.115 µM | TGI [9]: 12 µM | GI50 [10]: < 0.01 µM | TGI [10]: < 0.01 µM | GI50 [11]: 0.02 µM | TGI [11]: 13.1 µM | GI50 [12]: < 0.01 µM | TGI [12]: 0.948 µM | GI50 [13]: < 0.01 µM | TGI [13]: 0.56 µM | GI50 [14]: < 0.01 µM | TGI [14]: 5.38 µM | GI50 [15]: < 0.01 µM | TGI [15]: 0.0315 µM | GI50 [16]: < 0.01 µM | TGI [16]: 4.7 µM | GI50 [17]: < 0.01 µM | TGI [17]: 1.47 µM | GI50 [18]: < 0.01 µM | TGI [18]: 12.8 µM | GI50 [19]: < 0.01 µM | TGI [19]: 0.423 µM | GI50 [20]: < 0.01 µM | TGI [20]: 0.266 µM | GI50 [21]: < 0.01 µM | TGI [21]: 0.481 µM | GI50 [22]: < 0.01 µM | TGI [22]: < 0.0226 µM | GI50 [23]: < 0.01 µM | TGI [23]: 0.0767 µM | GI50 [24]: < 0.01 µM | TGI [24]: 2.03 µM | GI50 [25]: < 0.0131 µM | TGI [25]: > 52.2 µM | GI50 [26]: < 0.01 µM | TGI [26]: 0.0222 µM | GI50 [27]: < 0.01 µM | TGI [27]: 0.241 µM | GI50 [28]: < 0.01 µM | GI50 [29]: < 0.01 µM | TGI [29]: 0.314 µM | GI50 [30]: < 0.01 µM | TGI [30]: 30.8 µM | GI50 [31]: < 0.01 µM | TGI [31]: 1.93 µM | GI50 [32]: < 0.01 µM | TGI [32]: 0.026 µM | GI50 [33]: < 0.013 µM | TGI [33]: 2.35 µM | GI50 [34]: < 0.01 µM | TGI [34]: 0.039 µM | GI50 [35]: < 0.0145 µM | TGI [35]: 31.5 µM | GI50 [36]: 0.0245 µM | TGI [36]: 0.683 µM | GI50 [37]: < 0.01 µM | TGI [37]: 0.0708 µM | GI50 [38]: < 0.016 µM | TGI [38]: 0.275 µM | GI50 [39]: < 0.01 µM | TGI [39]: < 0.01 µM | GI50 [40]: < 0.012 µM | TGI [40]: 0.402 µM | GI50 [41]: < 0.01 µM | TGI [41]: 0.0337 µM | GI50 [42]: < 0.01 µM | TGI [42]: < 0.0253 µM | GI50 [43]: < 0.01 µM | TGI [43]: 1.55 µM | GI50 [44]: < 0.0125 µM | TGI [44]: 13.3 µM | GI50 [45]: < 0.01 µM | TGI [45]: 11.7 µM | GI50 [46]: < 0.01 µM | TGI [46]: 0.0572 µM | GI50 [47]: < 0.014 µM | TGI [47]: > 43.2 µM | GI50 [48]: < 0.0141 µM | TGI [48]: 2.21 µM | GI50 [49]: < 0.01 µM | TGI [49]: > 33.7 µM | GI50 [50]: < 0.01 µM | TGI [50]: 11.5 µM | GI50 [51]: < 0.01 µM | TGI [51]: 0.0443 µM | GI50 [52]: < 0.0112 µM | TGI [52]: 1.45 µM | GI50 [53]: < 0.01 µM | TGI [53]: 0.0227 µM | GI50 [54]: < 0.01 µM | TGI [54]: 2.6 µM | GI50 [55]: < 0.01 µM | TGI [55]: 0.232 µM | GI50 [56]: < 0.01 µM | TGI [56]: 1.19 µM | GI50 [57]: < 0.013 µM | TGI [57]: 52.3 µM
